Reference: US7417156B2, “Orally active, antimalarial, anticancer, artemisinin-derived trioxane dimers” (Johns Hopkins University, priority 2002, dated 2008)

Legend:
MALME-3M = test: NCI 60 cell line panel screen (SRB); format: cell-based, human; conditions: for Log10LC50 / Log10TGI50: MALME-3M (Melanoma); for Log10LC50: LC50: PG=−50; for Log10TGI50: TGI: PG=0
HCT-116 = test: NCI 60 cell line panel screen (SRB); format: cell-based, human; conditions: for Log10GI50: Colon Cancer, HCT-116; for Log10LC50 / Log10TGI50: HCT-116 (Colon Cancer); for Log10LC50: LC50: PG=−50; for Log10TGI50: TGI: PG=0
SF-268 = test: NCI 60 cell line panel screen (SRB); format: cell-based, human
HCT-15 = test: NCI 60 cell line panel screen (SRB); format: cell-based, human; conditions: for Log10GI50: Colon Cancer, HCT-15; for Log10LC50 / Log10TGI50: HCT-15 (Colon Cancer); for Log10LC50: LC50: PG=−50; for Log10TGI50: TGI: PG=0
K-562 = test: NCI 60 cell line panel screen (SRB); format: cell-based, human; conditions: for Log10LC50 / Log10TGI50: K-562 (Leukemia); for Log10LC50: LC50: PG=−50; for Log10TGI50: TGI: PG=0; for Log10GI50: Leukemia, K-562
UACC-257 = test: NCI 60 cell line panel screen (SRB); format: cell-based, human; conditions: for Log10GI50: Melanoma, UACC-257; for Log10LC50 / Log10TGI50: UACC-257 (Melanoma); for Log10LC50: LC50: PG=−50; for Log10TGI50: TGI: PG=0
NCI-H460 = test: NCI 60 cell line panel screen (SRB); format: cell-based, human; conditions: for Log10LC50 / Log10TGI50: NCI-H460 (Non-Small Cell Lung Cancer); for Log10LC50: LC50: PG=−50; for Log10TGI50: TGI: PG=0; for Log10GI50: Non-Small Cell Lung Cancer, NCI-H460
HT29 = test: NCI 60 cell line panel screen (SRB); format: cell-based, human; conditions: for Log10GI50: Colon Cancer, HT29; for Log10LC50: HT29 (Colon Cancer), LC50: PG=−50
NCI/ADR-RES = test: NCI 60 cell line panel screen (SRB); format: cell-based, human; conditions: for Log10GI50: Breast Cancer, NCI/ADR-RES; for Log10LC50 / Log10TGI50: NCI/ADR-RES (Breast Cancer); for Log10LC50: LC50: PG=−50; for Log10TGI50: TGI: PG=0
[1] = system: chloroquine-sensitive P. falciparum (NF54); test: Antimalarial activity in vitro, [3H]hypoxanthine incorporation; format: cell-based; conditions: Plasmodium falciparum, NF54, Table I; NF54 strain; read-out: IC50
HOP-62 = test: NCI 60 cell line panel screen (SRB); format: cell-based, human; conditions: for Log10LC50 / Log10TGI50: HOP-62 (Non-Small Cell Lung Cancer); for Log10LC50: LC50: PG=−50; for Log10TGI50: TGI: PG=0; for Log10GI50: Non-Small Cell Lung Cancer, HOP-62
M14 = test: NCI 60 cell line panel screen (SRB); format: cell-based, human; conditions: for Log10TGI50: M-14 (Melanoma), TGI: PG=0
SNB-75 = test: NCI 60 cell line panel screen (SRB); format: cell-based, human; conditions: SNB-75 (CNS Cancer)
CAKI-1 = test: NCI 60 cell line panel screen (SRB); format: cell-based, human; conditions: CAKI-1 (Renal Cancer); LC50: PG=−50
786-0 = test: NCI 60 cell line panel screen (SRB); format: cell-based, human; conditions: for Log10LC50: LC50: PG=−50; for Log10GI50: Renal Cancer, 786-0
NCI-H522 = test: NCI 60 cell line panel screen (SRB); format: cell-based, human; conditions: for Log10TGI50: NCI-H522 (Non-Small Cell Lung Cancer), TGI: PG=0; for Log10LC50: NCI-H-522 (Non-Small Cell Lung Cancer), LC50: PG=−50; for Log10GI50: Non-Small Cell Lung Cancer, NCI-H522
MCF7 = test: NCI 60 cell line panel screen (SRB); format: cell-based, human; conditions: for Log10GI50: Breast Cancer, MCF7; for Log10LC50: LC50: PG=−50
ACHN = test: NCI 60 cell line panel screen (SRB); format: cell-based, human; conditions: for Log10LC50 / Log10TGI50: ACHN (Renal Cancer); for Log10LC50: LC50: PG=−50; for Log10TGI50: TGI: PG=0
SK-MEL-28 = test: NCI 60 cell line panel screen (SRB); format: cell-based, human
RPMI-8226 = test: NCI 60 cell line panel screen (SRB); format: cell-based, human; conditions: for Log10GI50: Leukemia, RPMI-8226; for Log10LC50 / Log10TGI50: RPMI-8226 (Leukemia); for Log10LC50: LC50: PG=−50; for Log10TGI50: TGI: PG=0
MDA-MB-435 = test: NCI 60 cell line panel screen (SRB); format: cell-based, human; conditions: for Log10GI50: Breast Cancer, MDA-MB-435
A549/ATCC = test: NCI 60 cell line panel screen (SRB); format: cell-based, human
MDA-MB231/ATCC = test: NCI 60 cell line panel screen (SRB); format: cell-based, human
COLO 205 = test: NCI 60 cell line panel screen (SRB); format: cell-based, human

C[C@@H]1CC[C@H]2[C@@H](C)C(CC(O)(COC(=O)CCC(=O)O)CC3OC4O[C@]5(C)CC[C@H]6[C@H](C)CC[C@@H]([C@H]3C)C46OO5)OC3O[C@]4(C)CCC1C32OO4 (some centres unmarked) [Compound 9, tertiary alcohol primary succinate ester]
Log10LC50 (MALME-3M): >−4.30 log10M
Log10TGI50 (MALME-3M): −5.14 log10M
Log10GI50 (MALME-3M; Melanoma, MALME-3M): <−8.30
Log10GI50 (HCT-116): <−8.30
Log10LC50 (HCT-116): >−4.30 log10M
Log10TGI50 (HCT-116): >−4.30 log10M
Log10GI50 (SF-268; CNS Cancer, SF-268): −5.48
Log10LC50 (SF-268; SF-268 (CNS Cancer), LC50: PG=−50): >−4.30 log10M
Log10TGI50 (SF-268; SF-268 (CNS Cancer), TGI: PG=0): >−4.30 log10M
Log10GI50 (HCT-15): <−8.30
Log10LC50 (HCT-15): >−4.30 log10M
Log10TGI50 (HCT-15): −5.01 log10M
Log10LC50 (K-562): >−4.30 log10M
Log10TGI50 (K-562): >−4.30 log10M
Log10GI50 (K-562): −8.30
Log10GI50 (UACC-257): −4.89
Log10LC50 (UACC-257): >−4.30 log10M
Log10TGI50 (UACC-257): >−4.30 log10M
Log10LC50 (NCI-H460): >−4.30 log10M
Log10TGI50 (NCI-H460): >−4.30 log10M
Log10GI50 (NCI-H460): <−8.30
Log10GI50 (HT29): <−8.30
Log10LC50 (HT29): >−4.30 log10M
Log10GI50 (NCI/ADR-RES): −5.61
Log10LC50 (NCI/ADR-RES): >−4.30 log10M
Log10TGI50 (NCI/ADR-RES): >−4.30 log10M
IC50 [1]: 3 nM
Log10LC50 (HOP-62): >−4.30 log10M
Log10TGI50 (HOP-62): >−4.30 log10M
Log10GI50 (HOP-62): −5.69
Log10TGI50 (M14): >−4.30 log10M
Log10LC50 (SNB-75; LC50: PG=−50): >−4.30 log10M
Log10TGI50 (SNB-75; TGI: PG=0): >−4.30 log10M
Log10LC50 (CAKI-1): >−4.30 log10M
Log10LC50 (786-0; 786-0 (Renal Cancer)): >−4.30 log10M
Log10GI50 (786-0): <−8.30
Log10TGI50 (NCI-H522): >−4.30 log10M
Log10LC50 (NCI-H522): >−4.30 log10M
Log10GI50 (NCI-H522): −4.91
Log10GI50 (MCF7): <−8.30
Log10LC50 (MCF7; MCF7 (Breast Cancer)): >−4.30 log10M
Log10TGI50 (MCF7; MCF7 (Breast Cancer), TGI: PG=0): >−4.30 log10M
Log10LC50 (ACHN): >−4.30 log10M
Log10TGI50 (ACHN): −4.74 log10M
Log10GI50 (ACHN; Renal Cancer, ACHN): −6.67
Log10GI50 (SK-MEL-28; Melanoma, SK-MEL-28): <−8.30
Log10LC50 (SK-MEL-28; SK-MEL-28 (Melanoma), LC50: PG=−50): >−4.30 log10M
Log10TGI50 (SK-MEL-28; SK-MEL-28 (Melanoma), TGI: PG=0): >−4.30 log10M
Log10GI50 (RPMI-8226): <−8.30
Log10LC50 (RPMI-8226): >−4.30 log10M
Log10TGI50 (RPMI-8226): >−4.30 log10M
Log10GI50 (MDA-MB-435): <−8.30
Log10LC50 (MDA-MB-435; MDA-MB-435 (Breast Cancer), LC50: PG=−50): >−4.30 log10M
Log10TGI50 (MDA-MB-435; MDA-MB-435 (Breast Cancer), TGI: PG=0): >−4.30 log10M
Log10LC50 (A549/ATCC; A549/ATCC (Non-Small Cell Lung Cancer), LC50: PG=−50): >−4.30 log10M
Log10TGI50 (A549/ATCC; A549/ATCC (Non-Small Cell Lung Cancer), TGI: PG=0): >−4.30 log10M
Log10GI50 (A549/ATCC; Non-Small Cell Lung Cancer, A549/ATCC): −4.86

CC(=O)O[C@H]1C(=O)[C@@]2(C)[C@H]([C@H](OC(=O)c3ccccc3)[C@]3(O)C[C@H](OC(=O)[C@H](O)[C@@H](NC(=O)c4ccccc4)c4ccccc4)C(C)=C1C3(C)C)[C@]1(OC(C)=O)CO[C@@H]1C[C@@H]2O [Paclitaxel, paclitaxel, reference compound]
Log10LC50 (MALME-3M): −4.11 log10M
Log10TGI50 (MALME-3M): −4.46 log10M
Log10GI50 (HCT-116): <−13.00
Log10LC50 (HCT-116): >−4.00 log10M
Log10TGI50 (HCT-116): −4.82 log10M
Log10GI50 (HCT-15): −6.37
Log10LC50 (HCT-15): >−4.00 log10M
Log10TGI50 (HCT-15): >−4.00 log10M
Log10LC50 (K-562): >−4.00 log10M
Log10TGI50 (K-562): >−4.00 log10M
Log10GI50 (K-562): −10.83
Log10GI50 (UACC-257): −10.30
Log10LC50 (UACC-257): −4.03 log10M
Log10TGI50 (UACC-257): −4.52 log10M
Log10LC50 (NCI-H460): >−4.00 log10M
Log10TGI50 (NCI-H460): −4.92 log10M
Log10GI50 (NCI-H460): −12.16
Log10GI50 (HT29): <−13.00
Log10LC50 (HT29): −4.39 log10M
Log10GI50 (NCI/ADR-RES): −8.48
Log10LC50 (NCI/ADR-RES): >−4.00 log10M
Log10TGI50 (NCI/ADR-RES): >−4.00 log10M
Log10LC50 (HOP-62): −4.10 log10M
Log10TGI50 (HOP-62): −4.80 log10M
Log10GI50 (HOP-62): −9.67
Log10LC50 (M14; M14 (Melanoma), LC50: PG=−50): −4.13 log10M
Log10TGI50 (M14): −4.62 log10M
Log10GI50 (M14; Melanoma, M14): −11.73
Log10LC50 (CAKI-1): >−4.00 log10M
Log10LC50 (786-0; 786-0 (Renal Cancer)): >−4.00 log10M
Log10TGI50 (786-0; 786-0 (Renal Cancer), TGI: PG=0): >−4.00 log10M
Log10GI50 (786-0): −8.01
Log10GI50 (MDA-MB231/ATCC; Breast Cancer, MDA-MB231/ATCC): −8.54
Log10TGI50 (MDA-MB231/ATCC; MDA-MB231/ATCC (Breast Cancer), TGI: PG=0): −4.84 log10M
Log10TGI50 (NCI-H522): −11.20 log10M
Log10LC50 (NCI-H522): >−4.00 log10M
Log10GI50 (NCI-H522): <−13.00
Log10GI50 (MCF7): −11.69
Log10LC50 (MCF7; MCF7 (Breast Cancer)): >−4.00 log10M
Log10LC50 (ACHN): −4.45 log10M
Log10TGI50 (ACHN): −4.90 log10M
Log10LC50 (COLO 205; COLO 205 (Colon Cancer), LC50: PG=−50): >−4.41 log10M
Log10GI50 (COLO 205; Colon Cancer, COLO 205): −11.07
Log10GI50 (RPMI-8226): <−13.00
Log10LC50 (RPMI-8226): >−4.00 log10M
Log10TGI50 (RPMI-8226): >−4.00 log10M
Log10GI50 (MDA-MB-435): <−13.00
